Assay [1] concerns the target T1, CXCR3 (Homo sapiens, UniProt P49682).
T1 sequence (P49682 1-368): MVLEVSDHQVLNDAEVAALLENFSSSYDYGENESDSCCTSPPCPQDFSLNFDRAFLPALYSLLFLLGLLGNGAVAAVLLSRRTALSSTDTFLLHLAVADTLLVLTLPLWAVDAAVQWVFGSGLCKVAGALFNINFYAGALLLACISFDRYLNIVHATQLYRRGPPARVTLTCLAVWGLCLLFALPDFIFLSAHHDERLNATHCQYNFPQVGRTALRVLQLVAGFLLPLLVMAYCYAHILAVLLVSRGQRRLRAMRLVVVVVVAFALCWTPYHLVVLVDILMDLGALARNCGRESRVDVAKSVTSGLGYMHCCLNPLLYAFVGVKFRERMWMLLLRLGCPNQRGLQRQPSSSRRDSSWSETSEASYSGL
Nature of the assay: CXCR3 Ca2+ mobilization (FLIPR), stable hCXCR3-CHO cell line, I-TAC stimulated. Format: cell-based. On the set-up: host or cells: CHO cells stably expressing hCXCR3. Particulars: hCXCR3-CHO cells, I-TAC 100 nM stimulated Ca2+ response; read-out: Ca-ITAC. As for the experimental part: Human chinese hamster ovary (CHO) cell line stably expressing hCXCR3 was purchased from Euroscreen (Belgium) and culture in HAM's F12 (Invitrogen) containing 10% heat inactivated fetal calf serum (Cancerra, Australia), 50 units ml−1 penicillin, 50 μml−1 streptomycin, (Invitrogen, USA) and 400 μg/ml geneticin (G418) (Calbiochem, San Diego), according to the manufacturer.
CXCR3Ca^2+ mobilization was measured using a stable hCXCR3—CHO cell line and a microtiter-plate based assay using FLIPR^TETRA™ (Molecular Devices). In more detail, cells were harvested and plated into black 384-well plates (Becton-Dickinson) at a density of 15 000 cells per well and grown in the incubator for 18 hours. On the next day the media was aspirated and replaced with the cell loading buffer (HBSS—(Invitrogen) based buffer containing calcium indicator and signal enhancer from a commercial Ca2+ assay kit (Becton Dickinson). The plates were incubated for 60 minutes in the incubator, the test compounds were added and the plates equilibrated for 20 minutes at room temperature.
Plates were placed into FLIPR and the CXCR3 agonist (I-TAC, 100 nM) stimulated fluorescence change was quantitated. The activity of CXCR3 antagonists was determined as percent of the CXCR3 ligand I-TAC in the absence of the test compounds (=100% activity).
A general note: A change in cytosolic calcium serves as a functional read-out for many receptors and channels.

The target in assay [2] is T1, CXCR3. Nature of the assay: Chemotaxis assay ITAC (CXCL11), L1.2-CXCR3 cells. Particulars: 1 nM CXCL11 (I-TAC), 4 hours. On the set-up: expressed in transfected cells. Type of assay: cell-based. As for the experimental part:
Human CXCR3 cDNA was amplified by PCR from a human cells cDNA library (Clontech) and subcloned into pcDNA3.1 (Invitrogen). Murine pre-B L1.2 cells were transfected with hCXCR3-pcDNA3.1 and were grown at 37° C., 5% CO2 in RPMI 1640 medium (Invitrogen, USA) supplemented with 5% heat inactivated fetal calf serum (Cancerra, Australia), 2 mM glutamine (Invitrogen), 50 units ml−1 penicillin, 50 μml−1 streptomycin. Stable transfectant clonal populations were selected using 800 μg/ml geneticin.
L1.2-CXCR3 cells were grown for 24 hours at 0.5×10^6 cells/ml in chemotaxis medium containing 5 mM butyric acid (Sigma). Compounds were on one hand mixed with 1 nM of CXCL11 (I-TAC) in phenol-red free RPMI 1640 (invitrogen) supplemented with 5% fetal bovine serum in presence of 1% DMSO. The CXCL11/compounds mixture was then added to lower chambers of chemotaxis 96 well microplates (neuroprobe), and framed filters ([…] pore size) were put on top of the lower chambers. Compounds were on the other hand mixed with L1.2 CXCR3 cells and incubated in chemotaxis medium at 1.5×10^6 cells/ml in presence of 1% DMSO at 37° C., 5% CO2 for 30 minutes. Cells/compounds mixture was then added on top of the frame filters and migration was performed at 37° C., 5% CO2 for 4 hours. The number of migrated cells in the bottom chamber was determined using the CyQuant GR dye (Molecular Probe), according to the manufacturer.

Structures are written as SMILES.

For `N#Cc1ccc(S(=O)(=O)N(Cc2ccc(C(=O)NC(CO)C(O)c3ccccc3)cc2)Cc2cccnc2)cc1` (stereo not drawn) [Example 114], the IC50 on CXCR3 [1] is 2000 nM; against CXCR3 [2], 2500 nM.

For the compound `O=S(=O)(c1cccc(-c2ccccc2)c1)N(Cc1ccc(-c2nnn[nH]2)cc1)Cc1ccccn1` [Example 166], the IC50 at CXCR3 [1] was 1430 nM; against CXCR3 [2] it was 9050 nM.

With `CCOc1ccc(S(=O)(=O)N(Cc2ccc(C(=O)N[C@H]3[C@@H]4CN(C(=O)OC(C)(C)C)C[C@@H]43)cc2)Cc2cccnc2)cc1` [Example 94], the IC50 stood at 2000 nM at CXCR3 [1] and 260 nM on CXCR3 [2].

Turning to `C[C@@H](c1ccc(NC(=O)C2(c3ccccc3)CC2)cc1)N(Cc1ccccn1)S(=O)(=O)c1ccc(C#N)cc1` [Example 167], the IC50 is 250 nM at CXCR3 [1] and 1960 nM against CXCR3 [2].

In the case of `CCOc1ccc(S(=O)(=O)N(Cc2ccc(C(=O)N[C@H]3[C@@H]4CN(C(C)=O)C[C@@H]43)cc2)Cc2ccccn2)cc1` [Example 107], the IC50 amounted to 5500 nM at CXCR3 [1] and 2070 nM against CXCR3 [2].

With `Cc1nc(CN(Cc2ccc(-c3nnn[nH]3)cc2)S(=O)(=O)c2ccc(Cl)cc2)cs1` [Example 68, 4-chloro-N-(2-methyl-thiazol-4-ylmethyl)-N-[4-(2H-tetrazol-5yl)benzyl]benzenesulfonamide], the IC50 at CXCR3 [1] was determined as 2000 nM; on CXCR3 [2], 130 nM.

For the compound `N#Cc1ccc(S(=O)(=O)N(Cc2ccc(C(=O)NCc3cccnc3)cc2)Cc2ccccn2)cc1` [Example 136], the IC50 was determined as 8000 nM at CXCR3 [1] and 930 nM against CXCR3 [2].

Regarding `CC(=O)N1C[C@@H]2[C@H](C1)[C@H]2NC(=O)c1ccc(CN(Cc2ccccc2)S(=O)(=O)c2ccc(Cl)cc2)cc1` [Example 118], the IC50 at CXCR3 [1] is 3000 nM; against CXCR3 [2] it was 2610 nM.

For `N#Cc1ccc(S(=O)(=O)N(Cc2ccc(C(=O)O)c(F)c2)Cc2ccccn2)cc1` [Example 67, 4-{[[(4-cyanophenyl)sulfonyl](pyridin-2-ylmethyl)amino]methyl}-2-fluorobenzoic acid], the results for the IC50 on CXCR3 [1] and at CXCR3 [2] were 505 nM and 3060 nM, respectively.

`N#Cc1ccc(S(=O)(=O)N(Cc2ccc(C(=O)NC3(c4cccc(Cl)c4)CC3)cc2)Cc2ccccn2)cc1` [Example 123]: the values for the IC50 at CXCR3 [1] and against CXCR3 [2] were 300 nM and 60 nM, respectively.

On to `COC(=O)[C@@H](NC(=O)c1ccc(CN(Cc2ccccn2)S(=O)(=O)c2ccc(Cl)cc2)cc1)c1ccccc1` [Example 342], for which the IC50 at CXCR3 [1] amounted to 800 nM; against CXCR3 [2], 54 nM.

Take `CC(C)(C)OC(=O)N1C[C@@H]2[C@H](C1)[C@H]2NC(=O)c1ccc(CN(Cc2ccccn2)S(=O)(=O)c2ccc(Cl)cc2)cc1` [Example 105]: the IC50 was 20 nM at CXCR3 [1] and 70 nM against CXCR3 [2].

For `O=S(=O)(c1ccc(Cl)cc1)N(Cc1ccc(-c2nnn[nH]2)cc1)Cc1cccnc1` [Example 71, 4-chloro-N-(pyridin-3-ylmethyl)-N-[4-(2H-tetrazol-5yl)benzyl]benzene sulfonamide], the values for the IC50 at CXCR3 [1] and against CXCR3 [2] were 16000 nM and 1540 nM, respectively.

In the case of `COC(=O)c1ccc(CNC(=O)c2ccc(CN(Cc3ccccn3)S(=O)(=O)c3ccc(Cl)cc3)cc2)cc1` [Example 132], the IC50 amounted to 900 nM on CXCR3 [1] and 270 nM against CXCR3 [2].

Turning to `Cc1nc(CN(Cc2ccc(-c3nnn[nH]3)cc2)S(=O)(=O)c2ccc(Cl)cc2)no1` [Example 73, 4-chloro-N-(5-methyl-1,2,4-oxadiazol-3-ylmethyl)-N-[4-(2H-tetrazol-5yl)benzyl]benzene sulfonamide], the IC50 at CXCR3 [1] worked out at 12000 nM; against CXCR3 [2] it was 3240 nM.

Consider `N#Cc1ccc(S(=O)(=O)N(Cc2ccc(C(=O)NCCc3cccc(Cl)c3)cc2)Cc2cccnc2)cc1` [Example 110], for which the IC50 at CXCR3 [1] was determined as 750 nM; against CXCR3 [2] it was 390 nM.

On to `CCOc1ccc(S(=O)(=O)N(Cc2ccc(C(=O)N[C@H](CO)Cc3ccccc3)cc2)Cc2ccccn2)cc1` [Example 87], for which the values for the IC50 at CXCR3 [1] and at CXCR3 [2] were 17000 nM and 760 nM, respectively.

Regarding `N#Cc1ccc(S(=O)(=O)N(Cc2ccc(C(=O)N[C@@H](Cc3ccccc3)C(N)=O)cc2)Cc2ccccn2)cc1` [Example 100], the IC50 is 200 nM on CXCR3 [1] and 630 nM on CXCR3 [2].

Take `CCOc1ccc(S(=O)(=O)N(Cc2ccc(C(=O)NC3(c4ccccc4)CC3)c(OC)c2)Cc2ccccn2)cc1` [Example 189]: the IC50 was found to be 2000 nM on CXCR3 [1] and 280 nM on CXCR3 [2].

Regarding `N#Cc1ccc(S(=O)(=O)N(Cc2ccc([N+](=O)[O-])cc2)Cc2ccccn2)cc1` [Example 158], the IC50 amounted to 1000 nM at CXCR3 [1] and 4800 nM at CXCR3 [2].

For the compound `NC(C(=O)Nc1ccc(CN(Cc2ccccn2)S(=O)(=O)c2ccc(Cl)cc2)cc1)c1ccccc1` (stereo not drawn) [Example 181], the IC50 came out at 150 nM on CXCR3 [1] and 94 nM at CXCR3 [2].

`CCOc1ccc(S(=O)(=O)N(Cc2ccc(C(=O)OC)c(OC)c2)Cc2ccccn2)cc1` [Example 188]: the IC50 at CXCR3 [1] was 10500 nM; at CXCR3 [2] it was 3800 nM.

`O=S(=O)(c1ccc(Cl)cc1)N(Cc1ccc(-c2nnn[nH]2)cc1)Cc1nccc2ccccc12` [Example 74, 4-chloro-N-(isoquinolin-1-ylmethyl)-N-[4-(2H-tetrazol-5yl)benzyl]benzene sulfonamide]: the IC50 on CXCR3 [1] is 2000 nM; on CXCR3 [2], 666 nM.

On to `N#Cc1ccc(S(=O)(=O)N(Cc2ccc(C(=O)NCc3ccccc3)cc2)Cc2ccccn2)cc1` [Example 138], for which the IC50 came to 100 nM at CXCR3 [1] and 60 nM at CXCR3 [2].

`O=C(Nc1ccc(CN(Cc2ccccn2)S(=O)(=O)c2ccc(Cl)cc2)cc1)C(O)c1ccccc1` (stereo not drawn) [Example 170]: the IC50 on CXCR3 [1] turned out to be 400 nM; against CXCR3 [2], 50 nM.

For `O=S(=O)(c1ccc(Cl)cc1)N(Cc1ccccc1)Cc1ccc(-c2nnn[nH]2)cc1` [Example 121], the IC50 was determined as 3000 nM on CXCR3 [1] and 3890 nM on CXCR3 [2].

Take `O=C(NC1(c2ccc(Cl)cc2)CC1)c1ccc(CN(Cc2ccccn2)S(=O)(=O)c2ccc(Cl)cc2)cc1` [Example 125]: the IC50 on CXCR3 [1] stood at 400 nM; on CXCR3 [2], 350 nM.

`N#Cc1ccc(S(=O)(=O)N(Cc2ccc(C(=O)NCc3ccccn3)cc2)Cc2ccccn2)cc1` [Example 135]: the results for the IC50 on CXCR3 [1] and against CXCR3 [2] were 900 nM and 750 nM, respectively.

On to `O=S(=O)(c1ccc(Cl)cc1)N(Cc1ccc(-c2nnn[nH]2)cc1)C1CCc2cc(Cl)ccc21` (stereo not drawn) [Example 179], for which the results for the IC50 at CXCR3 [1] and against CXCR3 [2] were 350 nM and 8860 nM, respectively.

Turning to `COC(=O)C(NC(=O)c1ccc(CN(Cc2ccccn2)S(=O)(=O)c2ccc(Cl)cc2)cc1)c1ccc(F)c(F)c1` (stereo not drawn) [Example 147], the values for the IC50 at CXCR3 [1] and against CXCR3 [2] were 400 nM and 82 nM, respectively.

For the compound `CCOc1ccc(S(=O)(=O)N(Cc2ccc(C(=O)NC3(c4ccc(Cl)cc4)CC3)cc2)Cc2ccccn2)cc1` [Example 127], the values for the IC50 at CXCR3 [1] and on CXCR3 [2] were 500 nM and 380 nM, respectively.

On to `N#Cc1ccc(S(=O)(=O)N(Cc2ccc(C(=O)NCCc3ccc(S(N)(=O)=O)cc3)cc2)Cc2ccccn2)cc1` [Example 99], for which the IC50 at CXCR3 [1] turned out to be 1450 nM; against CXCR3 [2], 1030 nM.

`C[C@@H](c1ccc(NC(=O)C2(c3ccccc3)CC2)cc1)N(Cc1ccccn1)S(=O)(=O)c1ccc(Cl)cc1` [Example 164]: at CXCR3 [2], the IC50 came out at 4270 nM.

`O=C(NCC1CC1)c1ccc(CN(Cc2cccc[n+]2[O-])S(=O)(=O)c2ccc(Cl)cc2)cc1` [Example 134, 4-{[(4-Chloro-benzenesulfonyl)-(1-oxy-pyridin-2-ylmethyl)-amino]-methyl}-N-cyclopropylmethyl-benzamide] had an IC50 on CXCR3 [2] of 2980 nM.

(Values after patent publication US20110028509A1, “Sulfonamides” (MERCK SERONO SA, priority 2008, published 2011).)
